Measurements published in the supplement of paper PMC10307832.

Key:
Test in all cases: relative viability (nuclei count vs DMSO), 5 days (fraction); higher = more cells survive
Crenolanib + Lapatinib = compound: CC1(COc2ccc3c(c2)ncn3-c2ccc3cccc(N4CCC(N)CC4)c3n2)COC1 [Crenolanib] + CS(=O)(=O)CCNCc1ccc(-c2ccc3ncnc(Nc4ccc(OCc5cccc(F)c5)c(Cl)c4)c3c2)o1 [Lapatinib] (partner 2 µM)
How it was run: (§1)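 Each reported value is a median over duplicate plates. It expresses relative viability: treated-well nuclei count divided by vehicle-well nuclei count. Lung cancer cell lines in 1536-well plates were dosed by pin tool a day after seeding, alone with one drug or with a fixed anchor-drug dose plus five library-drug doses (not always all listed) in √10 steps, and nuclei were counted after 5 days.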

Tivantinib + Olaparib = compound: O=C1NC(=O)[C@@H](c2cn3c4c(cccc24)CCC3)[C@@H]1c1c[nH]c2ccccc12 [Tivantinib] + O=C(c1cc(Cc2n[nH]c(=O)c3ccccc23)ccc1F)N1CCN(C(=O)C2CC2)CC1 [Olaparib] (partner 8 µM)
How it was run: as §1

Crenolanib + Foretinib = compound: CC1(COc2ccc3c(c2)ncn3-c2ccc3cccc(N4CCC(N)CC4)c3n2)COC1 [Crenolanib] + COc1cc2c(Oc3ccc(NC(=O)C4(C(=O)Nc5ccc(F)cc5)CC4)cc3F)ccnc2cc1OCCCN1CCOCC1 [Foretinib] (partner 0.25 µM)
How it was run: as §1

Tivantinib + Dasatinib = compound: O=C1NC(=O)[C@@H](c2cn3c4c(cccc24)CCC3)[C@@H]1c1c[nH]c2ccccc12 [Tivantinib] + Cc1nc(Nc2ncc(C(=O)Nc3c(C)cccc3Cl)s2)cc(N2CCN(CCO)CC2)n1 [Dasatinib] (partner 0.075 µM)
How it was run: as §1

## UMC-11
Crenolanib + Lapatinib; first compound 0.01 µM
  relative viability: 0.955
Crenolanib + Lapatinib; first compound 0.03162 µM
  relative viability: 1.04
Crenolanib + Lapatinib; first compound 0.1 µM
  relative viability: 0.895
Crenolanib + Lapatinib; first compound 0.3162 µM
  relative viability: 0.985
Crenolanib + Lapatinib; first compound 1 µM
  relative viability: 0.95
Tivantinib + Olaparib; first compound 0.01 µM
  relative viability: 0.354
Tivantinib + Olaparib; first compound 0.03162 µM
  relative viability: 0.341
Tivantinib + Olaparib; first compound 0.1 µM
  relative viability: 0.365
Tivantinib + Olaparib; first compound 0.3162 µM
  relative viability: 0.362
Crenolanib + Foretinib; first compound 0.01 µM
  relative viability: 1.07
Crenolanib + Foretinib; first compound 0.03162 µM
  relative viability: 1.11
Crenolanib + Foretinib; first compound 0.1 µM
  relative viability: 0.95
Crenolanib + Foretinib; first compound 0.3162 µM
  relative viability: 1.21
Crenolanib + Foretinib; first compound 1 µM
  relative viability: 0.947
Tivantinib + Dasatinib; first compound 0.01 µM
  relative viability: 0.43
Tivantinib + Dasatinib; first compound 0.03162 µM
  relative viability: 0.491
Tivantinib + Dasatinib; first compound 0.1 µM
  relative viability: 0.421
Tivantinib + Dasatinib; first compound 0.3162 µM
  relative viability: 0.614
